Results taken from patent US6465007B1, “Transgene expression in polarized cells” (Genzyme Corporation, priority 1998, dated 2002).

Assays:
[1] = test system: mouse trachea; experiment: Intranasal instillation of Ad2βgal-4, quantitative chemiluminescent βgal assay of trachea; format: in vivo
Protocol: (§1) Female BALB/c mice 9-12 weeks of age were purchased from Taconic (Germantown, N.Y.). In some groups, mice were instilled intranasally with 25 μl of a solution containing EGTA (pH 7.5), followed by 25 μl of 5% sucrose in PBS containing Adβgal-4 (2×10^8 IU). In other groups, mice were co-instilled with 25 μl of a solution prepared by mixing equal volumes of a 2× (4×10^8 IU/25 μl) Ad2βgal-4 solution in 10% sucrose with 2×EGTA prior to instillation.
To quantify βgal expression, mice were sacrificed with an intraperitoneal injection of Somlethal (King Pharmaceuticals, Bristol, Tenn.) as described by Kaplan et al (1998), and samples of trachea from individual mice were homogenized in lysis buffer. βgal activity was measured with a commercial kit (Galactolight, Tropix, Bedford, Mass.). Protein concentration in the homogenate was measured using DC reagent (Bio-Rad, Hercules, Calif.). Results are expressed as relative light units (RLU) per milligram of total protein.

[2] = test system: AdV; experiment: Effect on AdV titer assessed on 293 cells; conditions: concentrations up to 0.4 M
Protocol: To rule out the possibility that EGTA might enhance the activity of AdV, the effects of EGTA on AdV titer were assessed on 293 cells.

[3] = test system: mouse trachea; experiment: Intranasal instillation of Ad2βgal-4, X-gal staining of airways; format: in vivo; conditions: for X-gal staining in the trachea: FIG. 4
Protocol: as §1
Cytochemical localization of Ogal expression in the trachea was observed using 5-bromo-4-chloro-3-indolyl-β-D-galactopyranoside (X-gal; Sigma). In brief, cannulated mouse lungs were fixed for 10 min by infusion of a fixing solution (2% paraformaldehyde and 0.2% glutaraldehyde in PBS). The lungs were then rinsed twice with 50 mM glycine in PBS, filled with X-gal solution, and stained overnight. Staining was stopped by transfering the samples into the fixing solution.
Trachea with staining levels were defined on a scale of 0 to 3, 0 indicating no cells staining for βgal, and a value of 3 indicating a large number of cells positive for the transgene. To evaluate the effect of EGTA concentration on AdV-mediated gene transfer in the trachea, mice were pre-treated with various concentrations of EGTA 0.5 h before AdV instillation. In some animals, AdV and EGTA were co-instilled. To exclude the possibility that any observed enhancement of expression was due to a hyperosmotic effect of the EGTA solution, a 20% mannitol solution (osmolarity similar to 0.4M EGTA) was included as a control in both the pre-treatment and co-instillation models.

[4] = test system: polarized NHBE cells; experiment: Infection with Ad2βgal-4 after pretreatment, βgal expression; format: cell-based, human; conditions: cells treated with the calcium chelator
Protocol: Polarized NHBE cells were treated with Ca^2+-free medium (GIBCO) for 0.5 h and then rinsed twice with Opti-MEM (GIBCO). […] The cells were then infected by adding 200 μl of Opti-MEM containing Ad2βgal-4 or Ad2EGFP (100 moi) to the apical surface of the cultures, while 1 ml of OptiMEM was added to the outside of the insert. After 1 h, the viral suspension was removed, the cells washed twice with Opti-MEM and then 1 ml of the culture medium was added to the outside of the insert. Two days after infection, cells were assayed for βgal expression.

O=C(O)CN(CCOCCOCCN(CC(=O)O)CC(=O)O)CC(=O)O [EGTA, Ethylene glycol bis(B-aminoethyl ether) N,N,N′,N′-tetraacetic acid]
time between treatment and AdV instillation giving maximal enhancement of β-gal expression ([1]; 0.1M and 0.4M, FIG. 5B): 0.5 h | tracheal gene expression relative to co-instilling AdV with 0.05M EGTA ([1]; pre-treated with 0.05 and 0.1M, FIG. 5A): > 6 fold | effect on virus activity [2]: no measurable effect | X-gal staining in the trachea ([3]; 0.4M pre-treatment group): most consistent and highest X-gal staining | X-gal staining in the trachea ([3]; treated mice vs AdV alone, 2×10^8 IU): marked increase | gene expression in trachea, primary bronchi and small airways (X-gal staining) ([3]; virus instilled 0.5 h after treatment): significantly enhanced | increase in expression from an AdV infection [4]: ~50 fold
